# Reference: patent US20150141336A1, “Pancreatic Peptide Compounds and Use” (Novo Nordisk A/S, priority 2012, published 2015)
# Numbered stars: 1 amine (or outer) side, 2 acyl side, 3 side chain; on linkers, the order of the positions; unused ones are H or OH. Side chains are listed from the residue outwards. Peptide text beside a SMILES is read from it. * marks the point of attachment. C18 diacid = O=C(O)CCCCCCCCCCCCCCCCC(=O)*; γGlu = O=C(O)[C@H](CCC(=O)[*:2])N[*:1]; AEEA = NCCOCCOCC(=O)O
# Assay: Assay (II) PK i.v. minipig, in vivo half-life
# Parameters: species or system Göttingen mini-pigs
# Settings: male, Göttingen, minipig, iv
# Summary of the method: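 Plasma levels after a single 6 nmol/kg intravenous dose in five male Göttingen mini-pigs were measured by TFC/LC/MS/MS against spiked-plasma calibration, sampling to 240 h. Vehicle: 50 mM K2HPO4, 0.05% tween 80, pH 8.0. Individual profiles analysed non-compartmentally for half-life.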
row,"Half-life minipig, Assay (II) [h]",Compound
1,36,CC[C@H](C)[C@H](NC(=O)[C@H](Cc1ccc(O)cc1)NC(=O)[C@H](CCCNC(=N)N)NC(=O)[C@H](CCCNC(=N)N)NC(=O)[C@H](CC(C)C)NC(=O)[C@H](CC(=O)O)NC(=O)[C@H](C)NC(=O)[C@H](C)NC(=O)[C@H](Cc1ccc(O)cc1)NC(=O)[C@H](CCC(N)=O)NC(=O)[C@H](C)NC(=O)[C@H](CCSC)NC(=O)[C@H](CCC(N)=O)NC(=O)[C@H](CCC(=O)O)NC(=O)[C@@H]1CCCN1C(=O)[C@@H](NC(=O)[C@H](C)NC(=O)[C@H](CC(N)=O)NC(=O)[C@H](CC(=O)O)NC(=O)CNC(=O)[C@@H]1CCCN1C(=O)[C@H](Cc1ccc(O)cc1)NC(=O)[C@@H](NC(=O)[C@@H]1CCCN1C(=O)[C@H](CCC(=O)O)NC(=O)[C@H](CC(C)C)NC(=O)[C@@H]1CCCN1C(=O)COCCOCCNC(=O)COCCOCCNC(=O)CC[C@H](NC(=O)CCCCCCCCCCCCCCCCC(=O)O)C(=O)O)C(C)C)[C@@H](C)O)C(=O)N[C@@H](CC(N)=O)C(=O)N[C@@H](CCSC)C(=O)N[C@@H](CC(C)C)C(=O)N[C@H](C(=O)N[C@@H](CCCNC(=N)N)C(=O)N1CCC[C@H]1C(=O)N[C@@H](CCCNC(=N)N)C(=O)N[C@@H](Cc1ccc(O)cc1)C(N)=O)[C@@H](C)O [Compound AF]

# Same assay, conditions: male, Göttingen, minipig, iv, Half-life minipig, Assay (II)
row,half-life [h],Compound
1,77,CC[C@H](C)[C@H](NC(=O)[C@H](Cc1ccc(O)cc1)NC(=O)[C@H](CCCNC(=N)N)NC(=O)[C@H](CCCNC(=N)N)NC(=O)[C@H](CC(C)C)NC(=O)[C@H](CC(=O)O)NC(=O)[C@H](C)NC(=O)[C@H](C)NC(=O)[C@H](Cc1ccc(O)cc1)NC(=O)[C@H](CCC(N)=O)NC(=O)[C@H](C)NC(=O)[C@H](CCSC)NC(=O)[C@H](CCC(N)=O)NC(=O)[C@H](CCC(=O)O)NC(=O)[C@@H]1CCCN1C(=O)[C@@H](NC(=O)[C@H](C)NC(=O)[C@H](CC(N)=O)NC(=O)[C@H](CC(=O)O)NC(=O)CNC(=O)[C@@H]1CCCN1C(=O)[C@H](Cc1ccc(O)cc1)NC(=O)[C@@H](NC(=O)[C@@H]1CCCN1C(=O)[C@H](CCC(=O)O)NC(=O)[C@H](CC(C)C)NC(=O)[C@@H]1CCCN1)C(C)C)[C@@H](C)O)C(=O)N[C@@H](CC(N)=O)C(=O)N[C@@H](CCCCNC(=O)COCCOCCNC(=O)COCCOCCNC(=O)CC[C@H](NC(=O)CCCCCCCCCCCCCCCCC(=O)O)C(=O)O)C(=O)N[C@@H](CC(C)C)C(=O)N[C@H](C(=O)N[C@@H](CCCNC(=N)N)C(=O)N1CCC[C@H]1C(=O)N[C@@H](CCCNC(=N)N)C(=O)N[C@@H](Cc1ccc(O)cc1)C(N)=O)[C@@H](C)O [Compound D] (H-PLEPVYPGDNATPEQMAQYAADLRRYINK([AEEA-AEEA-γGlu-C18 diacid])LTRPRY-NH2; N-terminus and C-terminus assumed)
2,44,CC[C@H](C)[C@H](NC(=O)[C@H](Cc1ccc(O)cc1)NC(=O)[C@H](CCCNC(=N)N)NC(=O)[C@H](CCCNC(=N)N)NC(=O)[C@H](CC(C)C)NC(=O)[C@H](CC(=O)O)NC(=O)[C@H](C)NC(=O)[C@H](C)NC(=O)[C@H](CCCCNC(=O)COCCOCCNC(=O)COCCOCCNC(=O)CC[C@H](NC(=O)CCCCCCCCCCCCCCCCC(=O)O)C(=O)O)NC(=O)[C@H](CCC(N)=O)NC(=O)[C@H](C)NC(=O)[C@H](CCSC)NC(=O)[C@H](CCC(N)=O)NC(=O)[C@H](CCC(=O)O)NC(=O)[C@@H]1CCCN1C(=O)[C@@H](NC(=O)[C@H](C)NC(=O)[C@H](CC(N)=O)NC(=O)[C@H](CC(=O)O)NC(=O)CNC(=O)[C@@H]1CCCN1C(=O)[C@H](Cc1ccc(O)cc1)NC(=O)[C@@H](NC(=O)[C@@H]1CCCN1C(=O)[C@H](CCC(=O)O)NC(=O)[C@H](CC(C)C)NC(=O)[C@@H]1CCCN1)C(C)C)[C@@H](C)O)C(=O)N[C@@H](CC(N)=O)C(=O)N[C@@H](CCSC)C(=O)N[C@@H](CC(C)C)C(=O)N[C@H](C(=O)N[C@@H](CCCNC(=N)N)C(=O)N1CCC[C@H]1C(=O)N[C@@H](CCCNC(=N)N)C(=O)N[C@@H](Cc1ccc(O)cc1)C(N)=O)[C@@H](C)O [Compound N] (H-PLEPVYPGDNATPEQMAQK([AEEA-AEEA-γGlu-C18 diacid])AADLRRYINMLTRPRY-NH2; N-terminus and C-terminus assumed)
3,88,CC[C@H](C)[C@H](NC(=O)[C@H](Cc1ccc(O)cc1)NC(=O)[C@H](CCCNC(=N)N)NC(=O)[C@H](CCCCNC(=O)COCCOCCNC(=O)COCCOCCNC(=O)CC[C@H](NC(=O)CCCCCCCCCCCCCCCCC(=O)O)C(=O)O)NC(=O)[C@H](CC(C)C)NC(=O)[C@H](CC(=O)O)NC(=O)[C@H](C)NC(=O)[C@H](C)NC(=O)[C@H](Cc1ccc(O)cc1)NC(=O)[C@H](CCC(N)=O)NC(=O)[C@H](C)NC(=O)[C@H](CCSC)NC(=O)[C@H](CCC(N)=O)NC(=O)[C@H](CCC(=O)O)NC(=O)[C@@H]1CCCN1C(=O)[C@@H](NC(=O)[C@H](C)NC(=O)[C@H](CC(N)=O)NC(=O)[C@H](CC(=O)O)NC(=O)CNC(=O)[C@@H]1CCCN1C(=O)[C@H](Cc1ccc(O)cc1)NC(=O)[C@@H](NC(=O)[C@@H]1CCCN1C(=O)[C@H](CCC(=O)O)NC(=O)[C@H](CC(C)C)NC(=O)[C@@H]1CCCN1)C(C)C)[C@@H](C)O)C(=O)N[C@@H](CC(N)=O)C(=O)N[C@@H](CCSC)C(=O)N[C@@H](CC(C)C)C(=O)N[C@H](C(=O)N[C@@H](CCCNC(=N)N)C(=O)N1CCC[C@H]1C(=O)N[C@@H](CCCNC(=N)N)C(=O)N[C@@H](Cc1ccc(O)cc1)C(N)=O)[C@@H](C)O [Compound I] (H-PLEPVYPGDNATPEQMAQYAADLK([AEEA-AEEA-γGlu-C18 diacid])RYINMLTRPRY-NH2; N-terminus and C-terminus assumed)
4,47,CC[C@H](C)[C@H](NC(=O)[C@H](Cc1ccc(O)cc1)NC(=O)[C@H](CCCNC(=N)N)NC(=O)[C@H](CCCNC(=N)N)NC(=O)[C@H](CC(C)C)NC(=O)[C@H](CC(=O)O)NC(=O)[C@H](C)NC(=O)[C@H](C)NC(=O)[C@H](Cc1ccc(O)cc1)NC(=O)[C@H](CCC(N)=O)NC(=O)[C@H](C)NC(=O)[C@H](CCSC)NC(=O)[C@H](CCC(N)=O)NC(=O)[C@H](CCC(=O)O)NC(=O)[C@@H]1CCCN1C(=O)[C@@H](NC(=O)[C@H](C)NC(=O)[C@H](CC(N)=O)NC(=O)[C@H](CCCCNC(=O)COCCOCCNC(=O)COCCOCCNC(=O)CC[C@H](NC(=O)CCCCCCCCCCCCCCCCC(=O)O)C(=O)O)NC(=O)CNC(=O)[C@@H]1CCCN1C(=O)[C@H](Cc1ccc(O)cc1)NC(=O)[C@@H](NC(=O)[C@@H]1CCCN1C(=O)[C@H](CCC(=O)O)NC(=O)[C@H](CC(C)C)NC(=O)[C@@H]1CCCN1)C(C)C)[C@@H](C)O)C(=O)N[C@@H](CC(N)=O)C(=O)N[C@@H](CCSC)C(=O)N[C@@H](CC(C)C)C(=O)N[C@H](C(=O)N[C@@H](CCCNC(=N)N)C(=O)N1CCC[C@H]1C(=O)N[C@@H](CCCNC(=N)N)C(=O)N[C@@H](Cc1ccc(O)cc1)C(N)=O)[C@@H](C)O [Compound X]

# Further lines, the compound ahead of its results:
row,Compound,half-life [h]
1,CC[C@H](C)[C@H](NC(=O)[C@H](Cc1ccc(O)cc1)NC(=O)[C@H](CCCNC(=N)N)NC(=O)[C@H](CCCNC(=N)N)NC(=O)[C@H](CC(C)C)NC(=O)[C@H](CC(=O)O)NC(=O)[C@H](C)NC(=O)[C@H](C)NC(=O)[C@H](Cc1ccc(O)cc1)NC(=O)[C@H](CCC(N)=O)NC(=O)[C@H](C)NC(=O)[C@H](CCSC)NC(=O)[C@H](CCC(N)=O)NC(=O)[C@H](CCC(=O)O)NC(=O)[C@H](CCCCNC(=O)COCCOCCNC(=O)COCCOCCNC(=O)CC[C@H](NC(=O)CCCCCCCCCCCCCCCCC(=O)O)C(=O)O)NC(=O)[C@@H](NC(=O)[C@H](C)NC(=O)[C@H](CC(N)=O)NC(=O)[C@H](CC(=O)O)NC(=O)CNC(=O)[C@@H]1CCCN1C(=O)[C@H](Cc1ccc(O)cc1)NC(=O)[C@@H](NC(=O)[C@@H]1CCCN1C(=O)[C@H](CCC(=O)O)NC(=O)[C@@H](N)CC(C)C)C(C)C)[C@@H](C)O)C(=O)N[C@@H](CC(N)=O)C(=O)N[C@@H](CCSC)C(=O)N[C@@H](CC(C)C)C(=O)N[C@H](C(=O)N[C@@H](CCCNC(=N)N)C(=O)N1CCC[C@H]1C(=O)N[C@@H](CCCNC(=N)N)C(=O)N[C@@H](Cc1ccc(O)cc1)C(N)=O)[C@@H](C)O [Compound BB] (H-LEPVYPGDNATK([AEEA-AEEA-γGlu-C18 diacid])EQMAQYAADLRRYINMLTRPRY-NH2; N-terminus and C-terminus assumed),19
2,CC[C@H](C)[C@H](NC(=O)[C@H](Cc1ccc(O)cc1)NC(=O)[C@H](CCCNC(=N)N)NC(=O)[C@H](CCCNC(=N)N)NC(=O)[C@H](CC(C)C)NC(=O)[C@H](CC(=O)O)NC(=O)[C@H](C)NC(=O)[C@H](C)NC(=O)[C@H](Cc1ccc(O)cc1)NC(=O)[C@H](CCC(N)=O)NC(=O)[C@H](C)NC(=O)[C@H](CCSC)NC(=O)[C@H](CCC(N)=O)NC(=O)[C@H](CCC(=O)O)NC(=O)[C@@H]1CCCN1C(=O)[C@@H](NC(=O)[C@H](C)NC(=O)[C@H](CC(N)=O)NC(=O)[C@H](CC(=O)O)NC(=O)CNC(=O)[C@@H]1CCCN1C(=O)[C@H](Cc1ccc(O)cc1)NC(=O)[C@@H](NC(=O)[C@@H]1CCCN1C(=O)[C@H](CCC(=O)O)NC(=O)[C@H](CC(C)C)NC(=O)[C@@H]1CCCN1C(=O)COCCOCCNC(=O)COCCOCCNC(=O)CC[C@H](NC(=O)CCCCCCCCCCCCCCCCC(=O)O)C(=O)O)C(C)C)[C@@H](C)O)C(=O)N[C@@H](CC(N)=O)C(=O)N[C@@H](CCSC)C(=O)N[C@@H](CC(C)C)C(=O)N[C@H](C(=O)N[C@@H](CCCNC(=N)N)C(=O)N1CCC[C@H]1C(=O)N[C@@H](CCCNC(=N)N)C(=O)N[C@@H](Cc1ccc(O)cc1)C(N)=O)[C@@H](C)O [Compound AF],33
3,CC[C@H](C)[C@H](NC(=O)[C@H](Cc1ccc(O)cc1)NC(=O)[C@H](CCCNC(=N)N)NC(=O)[C@H](CCCNC(=N)N)NC(=O)[C@H](CC(C)C)NC(=O)[C@H](CCCCNC(=O)COCCOCCNC(=O)COCCOCCNC(=O)CC[C@H](NC(=O)CCCCCCCCCCCCCCCCC(=O)O)C(=O)O)NC(=O)[C@H](C)NC(=O)[C@H](C)NC(=O)[C@H](Cc1ccc(O)cc1)NC(=O)[C@H](CCC(N)=O)NC(=O)[C@H](C)NC(=O)[C@H](CCSC)NC(=O)[C@H](CCC(N)=O)NC(=O)[C@H](CCC(=O)O)NC(=O)[C@@H]1CCCN1C(=O)[C@@H](NC(=O)[C@H](C)NC(=O)[C@H](CC(N)=O)NC(=O)[C@H](CC(=O)O)NC(=O)CNC(=O)[C@@H]1CCCN1C(=O)[C@H](Cc1ccc(O)cc1)NC(=O)[C@@H](NC(=O)[C@@H]1CCCN1C(=O)[C@H](CCC(=O)O)NC(=O)[C@@H](N)CC(C)C)C(C)C)[C@@H](C)O)C(=O)N[C@@H](CC(N)=O)C(=O)N[C@@H](CCSC)C(=O)N[C@@H](CC(C)C)C(=O)N[C@H](C(=O)N[C@@H](CCCNC(=N)N)C(=O)N1CCC[C@H]1C(=O)N[C@@H](CCCNC(=N)N)C(=O)N[C@@H](Cc1ccc(O)cc1)C(N)=O)[C@@H](C)O [Compound AS] (H-LEPVYPGDNATPEQMAQYAAK([AEEA-AEEA-γGlu-C18 diacid])LRRYINMLTRPRY-NH2; N-terminus and C-terminus assumed),10
